Assay results as given in publication PMC7367925, “The EU-ToxRisk method documentation, data processing and chemical testing pipeline for the regulatory use of new approach methods” (Archives of Toxicology, 2020).

Key:
[1] = target: T1, Androgen receptor (Homo sapiens, UniProt P10275); type: cell-based; conditions: 24 h exposure, lowest effect level PC20, reference agonist at EC50, means from 3 assay runs
T1 construct: host or cells: U-2 OS
T1 sequence (P10275 1-920): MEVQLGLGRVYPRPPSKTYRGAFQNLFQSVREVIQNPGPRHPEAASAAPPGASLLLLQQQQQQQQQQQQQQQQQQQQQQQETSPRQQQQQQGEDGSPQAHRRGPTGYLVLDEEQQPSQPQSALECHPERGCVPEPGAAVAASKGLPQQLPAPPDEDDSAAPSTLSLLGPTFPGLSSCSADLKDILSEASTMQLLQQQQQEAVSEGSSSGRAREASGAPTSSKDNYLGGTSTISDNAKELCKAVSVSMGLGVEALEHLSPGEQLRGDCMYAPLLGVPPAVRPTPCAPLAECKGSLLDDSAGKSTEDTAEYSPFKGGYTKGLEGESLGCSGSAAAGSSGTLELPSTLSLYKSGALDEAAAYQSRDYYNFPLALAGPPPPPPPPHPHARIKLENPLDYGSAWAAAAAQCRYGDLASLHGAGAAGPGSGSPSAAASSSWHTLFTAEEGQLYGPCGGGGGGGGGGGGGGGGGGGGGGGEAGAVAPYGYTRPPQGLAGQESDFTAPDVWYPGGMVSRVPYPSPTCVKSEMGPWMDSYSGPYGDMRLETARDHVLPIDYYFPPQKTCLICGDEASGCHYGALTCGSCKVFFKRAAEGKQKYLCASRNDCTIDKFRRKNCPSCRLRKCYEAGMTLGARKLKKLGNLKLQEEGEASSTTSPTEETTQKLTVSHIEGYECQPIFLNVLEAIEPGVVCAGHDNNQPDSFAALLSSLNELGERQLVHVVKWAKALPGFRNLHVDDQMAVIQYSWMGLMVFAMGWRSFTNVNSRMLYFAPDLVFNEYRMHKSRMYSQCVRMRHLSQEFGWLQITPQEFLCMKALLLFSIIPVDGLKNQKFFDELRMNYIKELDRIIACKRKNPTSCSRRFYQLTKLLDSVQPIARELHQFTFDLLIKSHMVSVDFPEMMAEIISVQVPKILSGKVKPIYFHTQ
Procedure: (§1) After 24 h, exposure medium was prepared. […] All samples were tested in triplicates. […] Fig. SM_4. […] Fig. SM_4.
(§2) Supplementary Material SM_4
(§3) Overview of CALUX assays.
(§4) This is defined as the concentration of test compound […]
(§5) for an antagonist assay is a PC20.
(§6) PC = positive control. FI = fold induction. PC10: concentration where test compound causes an activation equal to 10% of the maximum effect (positive control). PC20: concentration where test compound causes […]
(§7) FI=1.5: concentration where test
(§8) (A) exemplary graph of concentration- […]
(§9) receptor antagonism assay with PC20 as lowest-effect-level. (C) exemplary graph for assay with 1.5 fold inductionas lowest effect level. 9

[2] = system: U-2 OS cells; experiment: Cytotox CALUX; conditions: for PoD cytotoxicity: 24 h exposure, lowest effect level PC20, means from 3 assay runs
[3] = target: T2, Thyroid hormone receptor beta (Homo sapiens, UniProt P10828); experiment: TRb-anti CALUX; type: cell-based; conditions: 24 h exposure, lowest effect level PC20, reference agonist at EC50, means from 3 assay runs
T2 construct: host or cells: U-2 OS
T2 sequence (P10828 1-461): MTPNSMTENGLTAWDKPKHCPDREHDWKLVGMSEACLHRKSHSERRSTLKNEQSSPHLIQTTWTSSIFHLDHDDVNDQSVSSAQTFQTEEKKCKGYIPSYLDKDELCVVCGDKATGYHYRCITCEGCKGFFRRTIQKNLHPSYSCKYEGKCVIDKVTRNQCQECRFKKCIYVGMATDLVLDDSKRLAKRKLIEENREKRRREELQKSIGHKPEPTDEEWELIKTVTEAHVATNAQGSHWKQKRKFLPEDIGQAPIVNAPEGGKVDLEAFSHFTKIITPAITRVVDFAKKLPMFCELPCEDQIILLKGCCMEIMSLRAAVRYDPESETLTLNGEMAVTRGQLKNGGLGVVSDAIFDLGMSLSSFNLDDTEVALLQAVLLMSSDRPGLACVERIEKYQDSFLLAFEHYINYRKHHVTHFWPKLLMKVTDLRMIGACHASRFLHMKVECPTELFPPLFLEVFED
Procedure: as §1
Cell line Endpoint effect Reference compound […]
Cytotox CALUX Cytoxicity PC20 tributyltinacetate
as §2, §3, §4, §5, §6, §7, §8, §9

[4] = system: U-2 OS reporter cell lines battery; experiment: CALUX reporter gene assay battery as a whole; conditions: all CALUX assays, 13 concentrations, 24 h exposure
[5] = human, plasma; cited from earlier work
[6] = parameters: method as in Hardman JG 2001; conditions: known Cmax in man; ref Hardman JG 2001; cited from earlier work
[7] = pooled test systems of the NAM panel (all test methods)

SMILES	PoD cytotoxicity [2]	response profile over the CALUX battery (in words) [4]	Cmax [6]	viability [7]	also measured
Oc1c(Cl)cc(Cl)c(Cl)c1Cc1c(O)c(Cl)cc(Cl)c1Cl [Hexachlorophene]	5.5 -log(M)	only activated nuclear hormone receptor related assays			PoD AR - anta [1]: 5.7 -log(M); PoD TRβ - anta [3]: 6.0 -log(M)
CC(=O)Nc1ccc(O)cc1 [Paracetamol]		no effect			protein binding [5]: 15%
C[n+]1ccc(-c2ccccc2)cc1 [MPP^+, methyl-phenyl-pyridinium]		no effect			
COc1cc2c(c(OC)c1OC)-c1ccc(OC)c(=O)cc1[C@@H](NC(C)=O)CC2 [Colchicine]	7.3 -log(M)		449 µM		cytotoxic concentration [2]: 50 nM
CCCCNC(=O)NS(=O)(=O)c1ccc(C)cc1 [Tolbutamide]			196 µM	100%	
Cc1noc(NS(=O)(=O)c2ccc(N)cc2)c1C [Sulfisoxazole]		no effect	464 µM	100%	
